The results in this text go back to patent US9782434B2, “Methods of treating or preventing inflammation and hypersensitivity with oxidative reductive potential water solution” (Oculus Innovative Sciences, Inc., priority 2006, dated 2017).

Series [1] relates to murine polychromatic erythrocytes.
From the text: The mammalian in vivo micronucleus test is used for the identification of substances which cause damage to chromosomes or the mitotic apparatus of murine polychromatic erythrocytes. This damage results in the formation of “micronuclei,” intracellular structures containing lagging chromosome fragments or isolated whole chromosomes. […] All mice were observed immediately after injection for any adverse reactions. […] On day 3, all mice were weighed and terminated.
The femurs were excised from the terminated mice, the bone marrow was extracted, and duplicate smear preparations were performed for each mouse. The bone marrow slides for each animal were read at 40× magnification. The ratio of polychromatic erythrocytes (PCE) to normochromatic erythrocytes (NCE), an index of bone marrow toxicity, was determined for each mouse by counting a total of at least 200 erythrocytes. Then a minimum of 2000 scoreable PCE per mouse were evaluated for the incidence of micronucleated polychromatic erythrocytes. Statistical analysis of the data were done using the Mann and Whitney test (at 5% risk threshold) from a statistical software package (Statview 5.0®, SAS Institute Inc., USA).
The subject of series [2] is human diploid fibroblasts (HDFs). The series is described as follows: Cell viability, apoptosis and necrosis by flow cytometry. Format: cell-based. Particulars: 880 mM. The method, then:
HP is known to be toxic to eukaryotic cells, increasing apoptosis and necrosis and reducing cellular viability. […] HDF cultures were obtained from three different foreskins, which were pooled and cryopreserved together for the purpose of this study. Only diploid cells were used for all experiments. […] Simultaneous analyses of these parameters were performed in the same cell populations by flow cytometry using: […] B) Annexin V-FITC; and C) Propidium iodide. FIG. 4A-4C disclose percentage values expressed as mean±SD (n=3).

Series [3] has the same test system. To be noted: 30 min, 500 μM.
The subject of series [4] is B. atropheus spores, Pseudomonas aeruginosa, and Staphylococcus aureus. The series is described as follows: Bacterial suspension assay, test organisms overall. Format: cell-based. To be noted: 33 Units/ml; over the time periods tested. On the procedure:
Dermacyn is a ready to use product, therefore performing dilutions during testing was not required.
A purchased spore suspension of B. atropheus at 2.5×10^7/ml was used for testing. In addition fresh suspensions of Pseudomonas aeruginosa, and Staphylococcus aureus were prepared and measured using a spectrophotometer to ensure the titer was acceptable
Nine microliters of test substance was added to 100 ul of microbe suspension. The test mixture was held at 20° C. for the contact times of 20 seconds, 5 minutes, and 20 minutes. […] (entire mixture) was added to 9.0 ml of neutralizer for 20 minutes (this is the original neutralization tube or ONT) 1.0 ml of the neutralized test mixture was plated on Tryptic Soy Agar in duplicate for the 5 minute and 20 minute contact times. Additional dilutions and spread plates were used for the 20 second time point, to achieve countable plates.
All plates were incubated at 30° C.-35° C. for a total of 3 days and were evaluated after each day of incubation.

SMILES strings stand for the structures. Like-named read-outs stand apart in the source and are kept apart here. Bridge positions count the residues as written; N and C are the ends. Square brackets hold non-standard residues; d marks the D form. Peptide text beside a SMILES is read from it. * marks the point of attachment. Ileψ(thiazoline)Cys = CC[C@H](C)[C@H](N)C1=N[C@H](C(=O)*)CS1; dOrn = NCCC[C@@H](N)C(=O)O

In the case of `O=P1(N(CCCl)CCCl)NCCCO1` (centres unmarked) [cyclophosphamide], the PCE/NCE ratio in series [1] (females, negative controls 1.02) came out at 0.73; in series [1] (males, negative controls 0.90), 0.77. For the same compound, the “number of polychromatic erythrocytes bearing micronuclei” value in series [1] (males, negative controls 0.6) was found to be 11.0.

Consider `OO` [HP, hydrogen peroxide], for which, in series [2] (5 min), the “Cell viability (7AAD)” value is listed as 55% and the “necrosis, cells incorporating propidium iodide” value is reported as 20%. Besides, in series [2] (30 min), the “Cell viability (7AAD)” value is listed as 5% and the “necrosis, cells incorporating propidium iodide” value came out at 75%. Moreover, the “increase in number of 8-OHdG adducts relative to control-treated or ORP water solution-treated cells” value in series [3] is given as “about 25 fold”. Also, in the series with human cell cultures, the “GAPDH RT-PCR product” value is given as “little if any GAPDH RT-PCR product” and the “RNA degradation, denaturing gel electrophoresis” value was “significant RNA degradation”.

Consider `CC[C@H](C)[C@H](N)C1=N[C@H](C(=O)N[C@@H](CC(C)C)C(=O)N[C@H](CCC(=O)O)C(=O)N[C@H](C(=O)N[C@H]2CCCCNC(=O)[C@H](CC(N)=O)NC(=O)[C@@H](CC(=O)O)NC(=O)[C@H](Cc3cnc[nH]3)NC(=O)[C@@H](Cc3ccccc3)NC(=O)[C@H]([C@@H](C)CC)NC(=O)[C@@H](CCCN)NC2=O)[C@@H](C)CC)CS1` [Bacitracin] ({Ileψ(thiazoline)Cys}-L[dE]IK[dOrn]I[dF]H[dD]N; lactam 4-C), for which the “lowering of bacterial or spore populations” value in series [4] is given as “no evidence of lowering the bacterial or spore populations”.
